Assay results from ChEMBL document CHEMBL1148095, “6-Hydroxymanzamine A and 3,4-dihydromanzamine A, new alkaloids from the Okinawan marine sponge Amphimedon Sp” (J Nat Prod, 1994).
Converted amounts (≈) assume the structure as drawn.

How the values were obtained:
L1210 = experiment: Cytotoxicity against mouse L1210 cells; type: functional, cell-based
Micrococcus luteus = experiment: Antibacterial activity against Sarcina lutea; type: functional
KB = experiment: Cytotoxicity against human KB cells; type: functional, cell-based

Compound | IC50 (L1210) [µg/mL] | MIC (Micrococcus luteus) [µg/mL] | IC50 (KB) [µg/mL]
Oc1ccc2[nH]c3c(C4=C[C@@]5(O)CC/C=C\CCCCN6CCC4[C@]4(C[C@@H]7/C=C\CCCCN7[C@H]45)C6)nccc3c2c1 (stereo partly specified) | 1.5 (≈ 2.66 µM) | 1.25 (≈ 2.21 µM) | 2.5 (≈ 4.43 µM)
O[C@]12C=C(C3=NCCc4c3[nH]c3ccccc43)[C@@H]3CCN(CCCC/C=C\CC1)C[C@@]31C[C@@H]3/C=C\CCCCN3[C@H]12 [3,4-DIHYDROMANZAMINE A] | 0.48 (≈ 0.871 µM) | 4 (≈ 7.26 µM) | 0.61 (≈ 1.11 µM)
